Assay results as given in PubChem BioAssay (NCI).
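Values below derive from 48-hour exposures of cells grown in 96-well plates, with endpoints linearly interpolated between the two concentrations bracketing the appropriate inhibition level. TGI is the concentration that stops growth completely.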

Tests used:
Experiment in all cases: inhibition of tumour cell growth, NCI panel, 48 h
NCI-H460 lung = tested on: NCI-H460 lung
K-562 leukemia = tested on: K-562 leukemia
SNB-19 CNS = tested on: SNB-19 CNS
SW-620 colon = tested on: SW-620 colon
SK-MEL-28 melanoma = tested on: SK-MEL-28 melanoma
A498 renal = tested on: A498 renal
HS 578T breast = tested on: HS 578T breast
MOLT-4 leukemia = tested on: MOLT-4 leukemia
SK-MEL-2 melanoma = tested on: SK-MEL-2 melanoma
LOX IMVI melanoma = tested on: LOX IMVI melanoma
NCI/ADR-RES ovarian = tested on: NCI/ADR-RES ovarian
BT-549 breast = tested on: BT-549 breast
HCC-2998 colon = tested on: HCC-2998 colon
SK-OV-3 ovarian = tested on: SK-OV-3 ovarian
HOP-92 NSCLC = tested on: HOP-92 NSCLC
U251 CNS = tested on: U251 CNS
ACHN renal = tested on: ACHN renal
MDA-N = tested on: MDA-N
MALME-3M melanoma = tested on: MALME-3M melanoma
SR leukemia = tested on: SR leukemia
OVCAR-8 ovarian = tested on: OVCAR-8 ovarian
RPMI-8226 leukemia = tested on: RPMI-8226 leukemia
NCI-H226 lung = tested on: NCI-H226 lung
UACC-62 melanoma = tested on: UACC-62 melanoma
SN12C renal = tested on: SN12C renal
MDA-MB-231 breast = tested on: MDA-MB-231 breast
PC-3 prostate = tested on: PC-3 prostate
M14 melanoma = tested on: M14 melanoma
786-0 renal = tested on: 786-0 renal
MCF7 breast = tested on: MCF7 breast
OVCAR-3 ovarian = tested on: OVCAR-3 ovarian
CAKI-1 renal = tested on: CAKI-1 renal
OVCAR-4 ovarian = tested on: OVCAR-4 ovarian
UO-31 renal = tested on: UO-31 renal
COLO 205 colon = tested on: COLO 205 colon
HOP-62 NSCLC = tested on: HOP-62 NSCLC
HCT-15 colon = tested on: HCT-15 colon
HL-60(TB) leukemia = tested on: HL-60(TB) leukemia
SF-268 CNS = tested on: SF-268 CNS
SNB-75 CNS = tested on: SNB-75 CNS
NCI-H23 lung = tested on: NCI-H23 lung
UACC-257 melanoma = tested on: UACC-257 melanoma
KM12 colon = tested on: KM12 colon
NCI-H522 lung = tested on: NCI-H522 lung
RXF 393 renal = tested on: RXF 393 renal
EKVX NSCLC = tested on: EKVX NSCLC
A549 NSCLC = tested on: A549 NSCLC
T-47D breast = tested on: T-47D breast
TK-10 renal = tested on: TK-10 renal
MDA-MB-435 = tested on: MDA-MB-435
HCT-116 colon = tested on: HCT-116 colon
DU-145 prostate = tested on: DU-145 prostate
SF-295 CNS = tested on: SF-295 CNS
IGROV1 ovarian = tested on: IGROV1 ovarian
HT29 colon = tested on: HT29 colon
SK-MEL-5 melanoma = tested on: SK-MEL-5 melanoma
SF-539 CNS = tested on: SF-539 CNS
OVCAR-5 ovarian = tested on: OVCAR-5 ovarian
CCRF-CEM leukemia = tested on: CCRF-CEM leukemia

CC(C)=CCC[C@@H](C)C1=C(Nc2ccccc2Cl)C(O)=C(C)C(=O)C1=O
TGI (NCI-H460 lung): > 100 µM | TGI (K-562 leukemia): > 64.1 µM | TGI (SNB-19 CNS): 26.8 µM | TGI (SW-620 colon): > 56.4 µM | TGI (SK-MEL-28 melanoma): 33.5 µM | TGI (A498 renal): 27.4 µM | TGI (HS 578T breast): 13.1 µM | TGI (MOLT-4 leukemia): 25.1 µM | TGI (SK-MEL-2 melanoma): 19.2 µM | TGI (LOX IMVI melanoma): 98.4 µM | TGI (NCI/ADR-RES ovarian): 27.1 µM | TGI (BT-549 breast): 36.3 µM | TGI (HCC-2998 colon): 31 µM | TGI (SK-OV-3 ovarian): 33.5 µM | TGI (HOP-92 NSCLC): 29.3 µM | TGI (U251 CNS): 38 µM | TGI (ACHN renal): 11.1 µM | TGI (MDA-N): 27 µM | TGI (MALME-3M melanoma): 18.7 µM | TGI (SR leukemia): > 57.6 µM | TGI (OVCAR-8 ovarian): 9.09 µM | TGI (RPMI-8226 leukemia): > 28.7 µM | TGI (NCI-H226 lung): 25.3 µM | TGI (UACC-62 melanoma): 18 µM | TGI (SN12C renal): 25.2 µM | TGI (MDA-MB-231 breast): > 100 µM | TGI (PC-3 prostate): > 100 µM | TGI (M14 melanoma): 33.5 µM | TGI (786-0 renal): > 39.1 µM | TGI (MCF7 breast): > 100 µM | TGI (OVCAR-3 ovarian): 16.5 µM | TGI (CAKI-1 renal): 16 µM | TGI (OVCAR-4 ovarian): 43.3 µM | TGI (UO-31 renal): 17.9 µM | TGI (COLO 205 colon): 9.8 µM | TGI (HOP-62 NSCLC): 22.7 µM | TGI (HCT-15 colon): 36 µM | TGI (HL-60(TB) leukemia): 2.94 µM | TGI (SF-268 CNS): 20.2 µM | TGI (SNB-75 CNS): 22.3 µM | TGI (NCI-H23 lung): 15.9 µM | TGI (UACC-257 melanoma): 27.7 µM | TGI (KM12 colon): 17.7 µM | TGI (NCI-H522 lung): 12.2 µM | TGI (RXF 393 renal): 32.7 µM | TGI (EKVX NSCLC): 29.7 µM | TGI (A549 NSCLC): 15.7 µM | TGI (T-47D breast): 34.1 µM | TGI (TK-10 renal): > 100 µM | TGI (MDA-MB-435): 36.1 µM | TGI (HCT-116 colon): > 43.7 µM | TGI (DU-145 prostate): 29.3 µM | TGI (SF-295 CNS): 14 µM | TGI (IGROV1 ovarian): > 39.1 µM | TGI (HT29 colon): 13.6 µM | TGI (SK-MEL-5 melanoma): 10.1 µM | TGI (SF-539 CNS): 19.8 µM | TGI (OVCAR-5 ovarian): > 52 µM

CN(C)/N=C/c1cn(C)c(=O)n(C)c1=O
TGI (NCI-H460 lung): > 100 µM | TGI (K-562 leukemia): > 100 µM | TGI (SNB-19 CNS): > 100 µM | TGI (SW-620 colon): > 100 µM | TGI (SK-MEL-28 melanoma): > 100 µM | TGI (A498 renal): > 100 µM | TGI (HS 578T breast): > 100 µM | TGI (MOLT-4 leukemia): > 100 µM | TGI (SK-MEL-2 melanoma): > 100 µM | TGI (CCRF-CEM leukemia): > 100 µM | TGI (LOX IMVI melanoma): > 100 µM | TGI (NCI/ADR-RES ovarian): > 100 µM | TGI (BT-549 breast): > 100 µM | TGI (HCC-2998 colon): > 100 µM | TGI (SK-OV-3 ovarian): > 100 µM | TGI (HOP-92 NSCLC): > 100 µM | TGI (U251 CNS): > 100 µM | TGI (ACHN renal): > 100 µM | TGI (MDA-N): > 100 µM | TGI (MALME-3M melanoma): > 100 µM | TGI (OVCAR-8 ovarian): > 100 µM | TGI (RPMI-8226 leukemia): > 100 µM | TGI (NCI-H226 lung): > 100 µM | TGI (UACC-62 melanoma): > 100 µM | TGI (SN12C renal): > 100 µM | TGI (MDA-MB-231 breast): > 100 µM | TGI (PC-3 prostate): > 100 µM | TGI (M14 melanoma): > 100 µM | TGI (786-0 renal): > 100 µM | TGI (MCF7 breast): > 100 µM | TGI (OVCAR-3 ovarian): > 100 µM | TGI (CAKI-1 renal): > 100 µM | TGI (OVCAR-4 ovarian): > 100 µM | TGI (UO-31 renal): > 100 µM | TGI (COLO 205 colon): > 100 µM | TGI (HOP-62 NSCLC): > 100 µM | TGI (HCT-15 colon): > 100 µM | TGI (HL-60(TB) leukemia): > 100 µM | TGI (SF-268 CNS): > 100 µM | TGI (SNB-75 CNS): > 100 µM | TGI (NCI-H23 lung): > 100 µM | TGI (UACC-257 melanoma): > 100 µM | TGI (KM12 colon): > 100 µM | TGI (NCI-H522 lung): > 100 µM | TGI (RXF 393 renal): > 100 µM | TGI (EKVX NSCLC): > 100 µM | TGI (A549 NSCLC): > 100 µM | TGI (T-47D breast): > 100 µM | TGI (TK-10 renal): > 100 µM | TGI (MDA-MB-435): > 100 µM | TGI (HCT-116 colon): > 100 µM | TGI (DU-145 prostate): > 100 µM | TGI (SF-295 CNS): > 100 µM | TGI (IGROV1 ovarian): > 100 µM | TGI (HT29 colon): > 100 µM | TGI (SK-MEL-5 melanoma): > 100 µM | TGI (SF-539 CNS): > 100 µM | TGI (OVCAR-5 ovarian): > 100 µM

CCCCc1cc2c(C)cc(=O)oc2c(O)c1O
TGI (NCI-H460 lung): > 100 µM | TGI (K-562 leukemia): 73.5 µM | TGI (SNB-19 CNS): > 100 µM | TGI (SW-620 colon): 62.2 µM | TGI (SK-MEL-28 melanoma): > 100 µM | TGI (A498 renal): 72 µM | TGI (HS 578T breast): 59.5 µM | TGI (MOLT-4 leukemia): > 100 µM | TGI (SK-MEL-2 melanoma): > 100 µM | TGI (CCRF-CEM leukemia): 56.3 µM | TGI (LOX IMVI melanoma): 61 µM | TGI (NCI/ADR-RES ovarian): 56.4 µM | TGI (BT-549 breast): 33.6 µM | TGI (HCC-2998 colon): 15.7 µM | TGI (HOP-92 NSCLC): 59.6 µM | TGI (U251 CNS): 56.1 µM | TGI (ACHN renal): 94 µM | TGI (MDA-N): > 100 µM | TGI (MALME-3M melanoma): 88.9 µM | TGI (SR leukemia): 40.2 µM | TGI (OVCAR-8 ovarian): > 100 µM | TGI (RPMI-8226 leukemia): 43.3 µM | TGI (NCI-H226 lung): 67.9 µM | TGI (SN12C renal): > 100 µM | TGI (MDA-MB-231 breast): 28 µM | TGI (PC-3 prostate): 68.1 µM | TGI (M14 melanoma): 85 µM | TGI (786-0 renal): 99.4 µM | TGI (MCF7 breast): 45.7 µM | TGI (OVCAR-3 ovarian): 82 µM | TGI (CAKI-1 renal): 53.3 µM | TGI (OVCAR-4 ovarian): > 100 µM | TGI (UO-31 renal): 54.6 µM | TGI (COLO 205 colon): 56.5 µM | TGI (HOP-62 NSCLC): 65.8 µM | TGI (HCT-15 colon): > 100 µM | TGI (HL-60(TB) leukemia): 38.4 µM | TGI (SF-268 CNS): > 100 µM | TGI (SNB-75 CNS): > 100 µM | TGI (NCI-H23 lung): > 100 µM | TGI (UACC-257 melanoma): 66.1 µM | TGI (KM12 colon): 64.3 µM | TGI (NCI-H522 lung): 49 µM | TGI (RXF 393 renal): 59.6 µM | TGI (EKVX NSCLC): > 100 µM | TGI (A549 NSCLC): > 100 µM | TGI (T-47D breast): 82.3 µM | TGI (TK-10 renal): > 100 µM | TGI (MDA-MB-435): > 100 µM | TGI (HCT-116 colon): 96.1 µM | TGI (DU-145 prostate): > 100 µM | TGI (SF-295 CNS): 67.3 µM | TGI (IGROV1 ovarian): 51.7 µM | TGI (HT29 colon): 77 µM | TGI (SK-MEL-5 melanoma): 46.5 µM | TGI (SF-539 CNS): 47.4 µM | TGI (OVCAR-5 ovarian): > 100 µM
